From US20230172921A1, “LERIGLITAZONE FOR TREATING LUNG INFLAMMATION AND INTERSTITIAL LUNG DISEASE” (Minoryx Therapeutics S.L., priority 2020, published 2023)
“And” between values parts separate entries of the source, which are not always exact repeats. Equal values may be shown once. Where a name gives a salt, the structure may show the parent alone.

Experiments:
[1] = Lung/blood distribution ratio in rat; format: in vivo; settings: lung and blood
[2] = system: LPS induced acute lung injury (ALI) model; test: LPS induced acute lung injury model in mouse; format: in vivo; settings: for CD45+ % Decrease vs vehicle / CD45+ Mean / IL-6 % Decrease vs vehicle / IL-6 Mean / IL-12p40 % Decrease vs vehicle / IL-12p40 Mean / IP-10 % Decrease vs vehicle / IP-10 Mean / MIG % Decrease vs vehicle / MIG Mean / Neutrophils % Decrease vs vehicle / Neutrophils Mean / RANTES % Decrease vs vehicle / RANTES Mean / T cells % Decrease vs vehicle / T cells Mean / TNF % Decrease vs vehicle / TNF Mean / Total Protein in BALF % Decrease vs vehicle / Total Protein in BALF Mean: BALF Day 3; for decrease in neutrophil recruitment in the alveoli / decrease in neutrophil recruitment in the interstitium / reduction in mononuclear cell infiltration in the perivascular/peribronchiolar space / reduction of septal thickening in the alveoli: lung H&E histopathology score; for decrease in neutrophil recruitment in the alveoli / decrease in neutrophil recruitment in the interstitium / reduction in mononuclear cell infiltration in the perivascular/peribronchiolar space: FIG. 21; for reduction of septal thickening in the alveoli: FIG. 22
Procedure: Table 2 summarizes the groups tested in the LPS induced acute lung injury (ALI) model study in mice. [table] Briefly, C57Bl/6 7-8 week old mice were exposed to lipopolysaccharide (LPS) oral aspiration (5 mg/Kg). The animals were treated orally with either vehicle, M3 (50 mg/Kg, or MIN-102 at different doses 25 and 50 mg/Kg) bid from Day −1 to Day 2, 6-8 h apart and QD on Day 3 1 h before euthanasia. On Day 3 protein content, cytokine assessment and leukocyte count by FACS analysis were performed in the bronchoalveolar lavage fluid (BALF). The results are shown in FIGS. 11-20, and Tables 3 and 4. The lungs were collected, embedded and processed for H&E histology.

[3] = Unbound fraction in human plasma; format: in vitro ADME
[4] = system: Macrophages exposed to SARS-CoV-2; test: Cytokine production in macrophages in the presence of SARS-CoV-2 (Luminex); format: cell-based; settings: macrophages exposed to SARS-CoV-2, supernatant 24 h post-infection
[5] = maximal over doses 25 and 50 mg/kg, BALF

For CC(O)c1ccc(CCOc2ccc(CC3SC(=O)NC3=O)cc2)nc1 (racemic) [MIN-102, 5-[[4-[2-[5-(1-hydroxyethyl)pyridin-2-yl]ethoxy]phenyl]methyl]-1,3-thiazolidine-2,4-dione hydrochloride], which Kp [1] is on record?
The Kp was 0.83.

What about the “CD45+ % Decrease vs vehicle” value ([2]; 25 mg/kg PO BID) of the same molecule?
The value was 52.36%.

And the “CD45+ Mean” value ([2]; 25 mg/kg PO BID)?
Its value is 462941 cells/ml BALF.

And the “IL-6 % Decrease vs vehicle” value ([2]; 25 mg/kg PO BID)?
Its value is 76.17%.

What about the “IL-6 Mean” value ([2]; 25 mg/kg PO BID) of the same molecule?
Its value is 116.2 pg/mL.

What about the “IL-12p40 % Decrease vs vehicle” value ([2]; 25 mg/kg PO BID) of the same molecule?
Its value is 55.14%.

And the “IL-12p40 Mean” value ([2]; 25 mg/kg PO BID)?
The value was 15.48 pg/mL.

What about the “IP-10 % Decrease vs vehicle” value ([2]; 25 mg/kg PO BID) of the same molecule?
The value was 47.55%.

And the “IP-10 Mean” value ([2]; 25 mg/kg PO BID)?
Its value is 627.6 pg/mL.

What about the “MIG % Decrease vs vehicle” value ([2]; 25 mg/kg PO BID) of the same molecule?
The value was 50.52%.

And the “MIG Mean” value ([2]; 25 mg/kg PO BID)?
The value was 1369 pg/mL.

And the “Neutrophils % Decrease vs vehicle” value ([2]; 25 mg/kg PO BID)?
The value was 56.41%.

And the “Neutrophils Mean” value ([2]; 25 mg/kg PO BID)?
The value was 280504 cells/ml BALF.

And the “RANTES % Decrease vs vehicle” value ([2]; 25 mg/kg PO BID)?
The value was 61.57%.

What about the “RANTES Mean” value ([2]; 25 mg/kg PO BID) of the same molecule?
Its value is 21.68 pg/mL.

What about the “T cells % Decrease vs vehicle” value ([2]; 25 mg/kg PO BID) of the same molecule?
Its value is 43.43%.

And the “T cells Mean” value ([2]; 25 mg/kg PO BID)?
The value was 20898 cells/ml BALF.

And the “TNF % Decrease vs vehicle” value ([2]; 25 mg/kg PO BID)?
The value was 59.19%.

What about the “TNF Mean” value ([2]; 25 mg/kg PO BID) of the same molecule?
Its value is 12.85 pg/mL.

And the “Total Protein in BALF % Decrease vs vehicle” value ([2]; 25 mg/kg PO BID)?
The value was 46.00%.

What about the “Total Protein in BALF Mean” value ([2]; 25 mg/kg PO BID) of the same molecule?
The value was 245.3 µg/mL.

And the “CD45+ % Decrease vs vehicle” value ([2]; 50 mg/kg PO BID)?
Its value is 49.83%.

And the “CD45+ Mean” value ([2]; 50 mg/kg PO BID)?
Its value is 487506 cells/ml BALF.

What about the “IL-6 % Decrease vs vehicle” value ([2]; 50 mg/kg PO BID) of the same molecule?
The value was 87.13%.

What about the “IL-6 Mean” value ([2]; 50 mg/kg PO BID) of the same molecule?
Its value is 62.78 pg/mL.

And the “IL-12p40 % Decrease vs vehicle” value ([2]; 50 mg/kg PO BID)?
The value was 71.41%.

What about the “IL-12p40 Mean” value ([2]; 50 mg/kg PO BID) of the same molecule?
The value was 9.868 pg/mL.

And the “IP-10 % Decrease vs vehicle” value ([2]; 50 mg/kg PO BID)?
The value was 55.42%.

And the “IP-10 Mean” value ([2]; 50 mg/kg PO BID)?
The value was 731.5 pg/mL.

What about the “MIG % Decrease vs vehicle” value ([2]; 50 mg/kg PO BID) of the same molecule?
The value was 73.18%.

What about the “MIG Mean” value ([2]; 50 mg/kg PO BID) of the same molecule?
Its value is 741.7 pg/mL.

And the “Neutrophils % Decrease vs vehicle” value ([2]; 50 mg/kg PO BID)?
The value was 57.85%.

What about the “Neutrophils Mean” value ([2]; 50 mg/kg PO BID) of the same molecule?
Its value is 271223 cells/ml BALF.

And the “RANTES % Decrease vs vehicle” value ([2]; 50 mg/kg PO BID)?
The value was 79.24%.

And the “RANTES Mean” value ([2]; 50 mg/kg PO BID)?
Its value is 11.71 pg/mL.

And the “T cells % Decrease vs vehicle” value ([2]; 50 mg/kg PO BID)?
The value was 42.49%.

What about the “T cells Mean” value ([2]; 50 mg/kg PO BID) of the same molecule?
Its value is 21245 cells/ml BALF.

What about the “TNF % Decrease vs vehicle” value ([2]; 50 mg/kg PO BID) of the same molecule?
The value was 68.26%.

What about the “TNF Mean” value ([2]; 50 mg/kg PO BID) of the same molecule?
The value was 10 pg/mL.

What about the “Total Protein in BALF % Decrease vs vehicle” value ([2]; 50 mg/kg PO BID) of the same molecule?
The value was 49.50%.

What about the “Total Protein in BALF Mean” value ([2]; 50 mg/kg PO BID) of the same molecule?
Its value is 229.4 µg/mL.

What about the “decrease of total number of leukocytes (CD45 positive cells) vs vehicle group” value ([2]; in all doses (25 and 50 mg/kg), BALF) of the same molecule?
The value was 50%.

And the “decrease in neutrophil recruitment in the alveoli” value [2]?
The value was 53%.

What about the “decrease in neutrophil recruitment in the interstitium” value [2] of the same molecule?
The value was 48%.

And the “reduction in mononuclear cell infiltration in the perivascular/peribronchiolar space” value [2]?
Its value is 31%.

What about the “reduction of septal thickening in the alveoli” value [2] of the same molecule?
Its value is 43%.

What about the “T cells, maximal reduction vs vehicle group” value [2, 5] of the same molecule?
Its value is “around 47%”.

And the “neutrophils, maximal reduction vs vehicle group” value [2, 5]?
Its value is “around 58%”.

And the “Unbound % in Plasma (human)” value [3]?
Its value is 3.5%.

What about the “effect on IL2 secretion” value [4] of the same molecule?
The value was “No effect”.

And the “effect on IL7 secretion” value [4]?
Its value is “No effect”.

What about the “reduction of MIP1-α secretion” value [4] of the same molecule?
Its value is 90%.

Which “CD45+ % Decrease vs vehicle” value ([2]; 50 mg/kg PO BID) does the source give for CC(=O)c1ccc(CCOc2ccc(CC3SC(=O)NC3=O)cc2)nc1 (stereo not shown) [Compound M3, 5-[[4-[2-[5-Acetylpyridin-2-yl]ethoxy]phenyl]methyl]-1,3-thiazolidine-2,4-dione] here?
Its value is 67% and 67.35%.

What about the “CD45+ Mean” value ([2]; 50 mg/kg PO BID) of the same molecule?
The value was 317269 cells/ml BALF.

What about the “IL-6 % Decrease vs vehicle” value ([2]; 50 mg/kg PO BID) of the same molecule?
The value was 96.86%.

What about the “IL-6 Mean” value ([2]; 50 mg/kg PO BID) of the same molecule?
Its value is 15.29 pg/mL.

What about the “IL-12p40 % Decrease vs vehicle” value ([2]; 50 mg/kg PO BID) of the same molecule?
The value was 86.71%.

And the “IL-12p40 Mean” value ([2]; 50 mg/kg PO BID)?
Its value is 4.586 pg/mL.

What about the “IP-10 % Decrease vs vehicle” value ([2]; 50 mg/kg PO BID) of the same molecule?
Its value is 79.17%.

And the “IP-10 Mean” value ([2]; 50 mg/kg PO BID)?
Its value is 1045 pg/mL.

What about the “MIG % Decrease vs vehicle” value ([2]; 50 mg/kg PO BID) of the same molecule?
The value was 90.75%.

And the “MIG Mean” value ([2]; 50 mg/kg PO BID)?
Its value is 256.2 pg/mL.

And the “Neutrophils % Decrease vs vehicle” value ([2]; 50 mg/kg PO BID)?
The value was 72% and 72.06%.

What about the “Neutrophils Mean” value ([2]; 50 mg/kg PO BID) of the same molecule?
The value was 179793 cells/ml BALF.

What about the “RANTES % Decrease vs vehicle” value ([2]; 50 mg/kg PO BID) of the same molecule?
Its value is 93.19%.

And the “RANTES Mean” value ([2]; 50 mg/kg PO BID)?
Its value is 3.838 pg/mL.

What about the “T cells % Decrease vs vehicle” value ([2]; 50 mg/kg PO BID) of the same molecule?
The value was 74% and 74.14%.

And the “T cells Mean” value ([2]; 50 mg/kg PO BID)?
Its value is 9554 cells/ml BALF.

What about the “TNF % Decrease vs vehicle” value ([2]; 50 mg/kg PO BID) of the same molecule?
The value was 68.26%.

And the “TNF Mean” value ([2]; 50 mg/kg PO BID)?
Its value is 10 pg/mL.

What about the “Total Protein in BALF % Decrease vs vehicle” value ([2]; 50 mg/kg PO BID) of the same molecule?
The value was 63% and 63.24%.

What about the “Total Protein in BALF Mean” value ([2]; 50 mg/kg PO BID) of the same molecule?
The value was 167 µg/mL.

What about the “reduction of B cells” value ([2]; 50 mg/kg, BALF) of the same molecule?
The value was 52%.

And the “decrease in neutrophil recruitment in the alveoli” value [2]?
Its value is 64%.

What about the “decrease in neutrophil recruitment in the interstitium” value [2] of the same molecule?
Its value is 62%.

And the “reduction in mononuclear cell infiltration in the perivascular/peribronchiolar space” value [2]?
Its value is 40%.

And the “reduction of septal thickening in the alveoli” value [2]?
The value was 79%.

For CCc1ccc(CCOc2ccc(CC3SC(=O)NC3=O)cc2)nc1 (stereo not shown) [Pioglitazone, reference compound], which Kp [1] is on record?
Its Kp is 0.3.

What about the “Unbound % in Plasma (human)” value [3] of the same molecule?
The value was 0.2%.
